Patent publication US9663454B2, “3-aryl propiolonitrile compounds for thiol labeling” (Universite de Strasbourg, priority 2013, dated 2017)
“Also recorded” adds a separate entry of the source. Marks after values point to notes of the source that are not given here. Blank lines part the entries; values can stand above or below the compound they belong to.

Columns and labels:
[1] = Labeling of a cysteine derivative: conversion of arylpropiolonitriles 1-12 with AcCysNHBn, HPLC; settings: 50 μM of each reagent, 25° C., PBS pH 7.6
Experimental: To a vial containing 985 μL of PBS (1×, pH 7.6), were subsequently added 5 μL of the stock solution of benzamide (10 mM in water), 5 μL of the stock solution of arylpropiolonitrile (1-12, 10 mM in DMSO) and 5 μL of stock solution of AcCysNHBn (7 m, 10 mM in DMSO). […] Areas under the peaks of the starting materials and hydrolysis products were normalized according to the area of the peak of the internal standard.
Obtained results are summed up in table 2 below, which presents the conversion of the compounds 1-12 in 30 minutes in presence of 7m at 50 μM concentration of each reagent and 25° C. The reaction is extremely sensitive to steric hindrances induced by substituents in ortho-position to propiolonitrile group (entries 1, 5, 8-9, 4) as well as to electronic effect of the substituent: −I and −M substituents increase (entries 10 and 12), while +M substituents decrease the reactivity of the compound (entries 3 and 7).

[2] = Stability of the addition product in different working solutions, HPLC; type: physicochemical; settings: for Conversion of “addition product” in 1 h: 100 μM, 25° C.
Experimental: A 100 mM stock solution of the “addition product”
[drawing 113] was prepared in DMSO and stored at −20° C. 1 μL of the stock solution was added to 999 μL of working solutions to give 100 μM final concentration of substrate. Aliquots were analyzed at 0, 30 and 60 min. Areas under peak of starting material were normalized according to the area of the peak of the internal standard (benzamide). All measurements were carried at 25° C.

[3] = Hydrolytic stability in PBS, HPLC monitoring; type: physicochemical
Experimental: FIG. 3a-3b: HPLC monitoring of the hydrolysis of phenylmaleimide (2) in PBS (1×, pH 7.6) at 1 mM concentration at 25° C.; the peaks correspond, from the earliest to the latest, to
[drawing 5] conversion was monitored by disappearance of the starting material (a). Pseudo first order rate constant for the reaction was determined by plotting the ln([phenylmaleimide]) versus time and analyzing by linear regression. The constant corresponds to the absolute value of determined slope (b).
FIG. 4: HPLC monitoring of hydrolytic stability of N-(4-(cyanoethynyl)phenyl)acetamide (pNHAc-APN, 11) in PBS (1×, pH 7.6) at 1 mM concentration at 25° C. Conversion was monitored by disappearance of the starting material; the peaks correspond, from the earliest to the latest, to
To a vial containing 980 μL of PBS (1×, pH 7.6), were subsequently added 10 μL of a stock solution of benzamide and 10 μL of a stock solution of electrophile (phenylmaleimide 1 or
[drawing 112] 11) to give final concentration of 1 mM (both internal standard and electrophile). Aliquots of the reaction mixture (50 μL) were analyzed by HPLC for 5 hours of hydrolysis (injection every 30 min). Areas under the peaks of the starting materials and hydrolysis products were normalized according to the area of the peak of the internal standard.

Trastuzumab [4] = assay: Rebridging of antibody fragments, SDS-PAGE in reducing conditions; settings: Trastuzumab reduced with 5 eq. TCEP, 15 eq. compound, 16 h at 25° C.
Experimental: To the solution of Trastuzumab (100 uL, 10 mg/mL in 50 mM PBS pH 7.4 with 10 mM of EDTA) was added the solution of TCEP (10 mM in water, 5 eq.). The mixture was incubated at 37° C. for 2 h and then the solution of 33 or 34 (10 mM in DMSO, 15 eq.) was added. The resulting solution was incubated for 16 h at 25° C. and then analyzed by SDS-PAGE in reducing conditions.

[5] = test system: partially reduced Trastuzumab; assay: Direct conjugation to partially reduced Trastuzumab, SDS-PAGE and ESI-MS
Experimental: To the solution of Trastuzumab (100 uL, 10 mg/mL in 50 mM PBS pH 7.4 with 10 mM of EDTA) was added the solution of TCEP (10 mM in water, 1.1 or 2.2 eq.). The mixture was incubated at 37° C. for 2 h and then the solution of 58 (8.25 μL, 10 mM in DMSO) was added. The mixture was incubated at 25° C. for 16 h and the conjugate was purified by size exclusion chromatography.

Trastuzumab [6] = assay: Conjugation of Trastuzumab and TAMRA-SH via linker, SDS-PAGE and native ESI-MS
Experimental: To the solution of Trastuzumab (100 uL, 10 mg/mL in 50 mM borate buffer pH 8.5) was added 1.74 uL of the solution of 18 (10 mg/mL in DMSO). After incubation for 1 h at 25° C. was added 0.69 uL of TAMRA-SH (100 mM in DMSO). The mixture was incubated at 25° C. for 16 h and the conjugate was purified by size exclusion chromatography.
The comparison experiment was carried out using 4-(N-maleimidomethyl)cyclohexanecarboxylic acid N-hydroxysuccinimide ester (SMCC) instead of 18.

[7] = Selectivity screening of electrophiles, whole panel of amino acid models; settings: 1 hour, PBS (1×, pH 7.6), 1 mM reagents
Experimental: Screening for selectivity was done on benzylamides of non-protected amino acids. 100 mM stock solutions of benzylamides of amino acids (in form of TFA salts) and electrophiles (phenylpropiolonitrile and phenylmaleimide) were prepared in DMSO and stored at −20° C. A 100 mM stock solution of benzamide (used as an internal standard) was prepared in distilled water and stocked at −20° C. Analyses of reaction mixtures were conducted with Shimadzu LC with SunFire™ C18 5 μM 4.6×150 mm column (Waters). HPLC parameters were as follows: flow rate 1 mL/min, gradient from 5 to 95% of mobile phase B from 0 to 20 min, followed by 5 min at 95% of mobile phase and post time of 5 min. Mobile phase A was 0.05% TFA in water (mQ) (v/v), and mobile phase B was acetonitrile (HPLC grade). Data were analyzed using Shimadzu analysis software. Signals were normalized according to the area of the peak of the internal standard (benzamide). […]
10 μL of the stock solution of amino acid benzamide and 2.5 μL of the stock solution of benzamide were added to a vial containing 977.5 μL of PBS (1×, pH 7.6). […] Aliquots of the reaction mixture (50 μL) were analyzed by HPLC for 1 hour of hydrolysis (injections at 0, 30 and 60 min). […] Masses of corresponding adducts were detected by mass spectrometry (ESI-LCMS) in some cases (shown in bold, Table 4).

[8] = Selectivity screening of electrophiles on amino acid benzylamides, HPLC; settings: in 1 hour in PBS (1×, pH 7.6) in presence of the electrophile, 1 mM reagents
Experimental: Screening for selectivity was done on benzylamides of non-protected amino acids. 100 mM stock solutions of benzylamides of amino acids (in form of TFA salts) and electrophiles (phenylpropiolonitrile and phenylmaleimide) were prepared in DMSO and stored at −20° C. A 100 mM stock solution of benzamide (used as an internal standard) was prepared in distilled water and stocked at −20° C. Analyses of reaction mixtures were conducted with Shimadzu LC with SunFire™ C18 5 μM 4.6×150 mm column (Waters). HPLC parameters were as follows: flow rate 1 mL/min, gradient from 5 to 95% of mobile phase B from 0 to 20 min, followed by 5 min at 95% of mobile phase and post time of 5 min. Mobile phase A was 0.05% TFA in water (mQ) (v/v), and mobile phase B was acetonitrile (HPLC grade). Data were analyzed using Shimadzu analysis software. Signals were normalized according to the area of the peak of the internal standard (benzamide). Areas under the peaks of the amino acid benzylamides were used to calculate their conversion during reaction.
10 μL of the stock solution of amino acid benzamide and 2.5 μL of the stock solution of benzamide were added to a vial containing 977.5 μL of PBS (1×, pH 7.6). The solution was stirred and 10 μL of the stock solution of electrophile were added to give 1 mM final concentrations of reagents and 0.25 mM concentration of benzamide. Aliquots of the reaction mixture (50 μL) were analyzed by HPLC for 1 hour of hydrolysis (injections at 0, 30 and 60 min). Areas under the peaks of the starting materials and hydrolysis products were normalized according to the area of peak of the internal standard. In case of phenylpropiolonitrile, none of amino acid models gave more than 1.6% conversion (see table 3 below). […] Masses of corresponding adducts were detected by mass spectrometry (ESI-LCMS) in some cases (shown in bold, Table 4).

[9] = conversion in 60 minutes in presence of 7m
[10] = conversion of the compound in 30 minutes in presence of 7m

Compound: COc1cccc(OC)c1C#CC#N [Compound 4, 3-(2,6-Dimethoxyphenyl)propiolonitrile]
- Conversion [1, 9]: 4.8%**

- Conversion of “addition product” in 1 h ([2]; 100 mM PhSH in PBS(7.4):DMSO = 80:20): 0.7%
- Conversion of “addition product” in 1 h ([2]; 1M Glutathione reduced (GSH) in PBS (7.4)): 0.4%
- Conversion of “addition product” in 1 h ([2]; 1M H2O2): 1.8%
- Conversion of “addition product” in 1 h ([2]; 1M HCl (pH = 0)): 0.1%
- Conversion of “addition product” in 1 h ([2]; 1M Imidazole in PBS (7.4)): 0.5%
- Conversion of “addition product” in 1 h ([2]; 1M NaOH (pH = 14)): 3.4%
Compound: N#CC=C(SCC(N)C(=O)NCc1ccccc1)c1ccccc1 (stereo not drawn) [addition product]
- thiol exchange (in words) ([2]; 1 hour with an excess of phenylthiol or glutathione): no exchange product could be observed; also recorded: hardly any thiol exchange is observed
- stability (in words) ([2]; wide range of conditions, pH from 0 to 14): stable in a wide range of pH (from 0 to 14); also recorded: stable and undergoes very little degradation in a wide range of conditions

Compound: N#CC#Cc1ccc(N)cc1 [Compound 7, 3-(4-Aminophenyl)propiolonitrile]
- Conversion [1, 10]: 7.4%

Compound: N#CC#Cc1ccccc1N [Compound 5, 3-(2-Aminophenyl)propiolonitrile]
- Conversion [1, 10]: 10.8%

- hydrolyzed ([3]; after 1 h in buffer solution): approximately 25%
Compound: COc1ccccc1C#CC#N [Compound 1, 3-(2-Methoxyphenyl)propiolonitrile]
- kobs (pseudo first order rate constant of hydrolysis) ([3]; PBS (1×, pH 7.6), 1 mM, 25° C.): 7e-05 s⁻¹
- Conversion [1, 10]: 10.1%

Compound: N#CC#Cc1cccc(C#CC#N)c1 [Compound 34, 3,3′-(1,3-Phenylene)dipropiolonitrile]
- bridging of antibody fragments (in words) (Trastuzumab [4]): successfully bridged

Compound: COc1cccc(C#CC#N)c1 [Compound 2, 3-(3-Methoxyphenyl)propiolonitrile]
- Conversion [1, 10]: 46.8%

Compound: Cc1cccc(C)c1C#CC#N [Compound 9, 3-(2,6-Dimethylphenyl)propiolonitrile]
- Conversion [1, 9]: 2.3%**

Compound: CN(C)c1ccc2c(-c3cc(C(=O)NCc4cn(-c5ccc(C#CC#N)cc5)nn4)ccc3C(=O)[O-])c3ccc(=[N+](C)C)cc-3oc2c1 [Compound 58, 4-(((1-(4-(cyanoethynyl)phenyl)-1H-1,2,3-triazol-4-yl)methyl)carbamoyl)-2-(6-(dimethylamino)-3-(dimethyliminio)-3H-xanthen-9-yl)benzoate]
- molecules conjugated per antibody, in average ([5]; ESI-MS, 2.2 eq. of TCEP): 4
- attachment to the antibody (in words) ([5]; SDS-PAGE of the conjugates): covalently attached to the antibody

Compound: N#CC#Cc1ccc(C(=O)Oc2c(F)c(F)c(S(=O)(=O)O)c(F)c2F)cc1 [Compound 18, Sodium 4-((4-(cyanoethynyl)benzoyl)oxy)-2,3,5,6-tetrafluorobenzenesulfonate]
- level of conjugation (in words) (Trastuzumab [6]; SDS-PAGE, Trastuzumab + TAMRA-SH, versus SMCC): higher levels of conjugation comparing to SMCC
- molecules of TAMRA conjugated per antibody, in average (Trastuzumab [6]; native ESI-MS of the conjugate): one
- population of conjugates (in words) (Trastuzumab [6]; native ESI-MS of the conjugate): cleaner population of conjugates

Compound: Cc1ccccc1C#CC#N [Compound 8, 3-(o-Tolyl)propiolonitrile]
- Conversion [1, 10]: 10.3%

Compound: N#CC#Cc1cccc(N)c1 [Compound 6, 3-(3-Aminophenyl)propiolonitrile]
- Conversion [1, 10]: 42.0%

Compound: N#CC#Cc1ccccc1C#CC#N [Compound 33, 3,3′-(1,2-Phenylene)dipropiolonitrile]
- bridging of antibody fragments (in words) (Trastuzumab [4]): successfully bridged

Compound: COc1ccc(C#CC#N)cc1 [Compound 3, 3-(4-Methoxyphenyl)propiolonitrile]
- Conversion [1, 10]: 14.6%

Compound: N#CC#Cc1ccccc1 [phenylpropiolonitrile]
- highest conversion among the amino acid models other than cysteine [7]: ≤ 1.6%
- Conversion of AlaNHBn (7c) [8]: 0.1%
- Conversion of ArgNHBn (7k) [8]: 0.4%
- Conversion of AspNHBn (7l) [8]: 0.6%
- Conversion of CysNHBn (7a) [8]: 98%
- Conversion of GlnNHBn (7i) [8]: 0.1%
- Conversion of GlyNHBn (7b) [8]: 0.2%
- Conversion of HisNHBn (7h) [8]: 0.6%
- Conversion of MetNHBn (7f) [8]: 0.1%
- Conversion of SerNHBn (7e) [8]: 0.3%
- Conversion of TrpNHBn (7j) [8]: 1.3%
- Conversion of TyrNHBn (7g) [8]: 1.6%
- Conversion of ValNHBn (7d) [8]: 0.7%

Compound: N#CC#Cc1ccccc1[N+](=O)[O-] [Compound 10, 3-(2-Nitrophenyl)propiolonitrile]
- Conversion [1, 10]: 70.4%*

Compound: CNC(=O)c1ccc(C#CC#N)cc1 [Compound 12, 4-(Cyanoethynyl)-N-methylbenzamide]
- Conversion [1, 10]: 85.5%

Compound: O=C(ON1C(=O)CCC1=O)C1CCC(CN2C(=O)C=CC2=O)CC1 (stereo not drawn) [SMCC, 4-(N-maleimidomethyl)cyclohexanecarboxylic acid N-hydroxysuccinimide ester, reference compound]
- population of conjugates (in words) (Trastuzumab [6]; native ESI-MS of the conjugate): complex mixture of undistinguishable species

Compound: CC(=O)Nc1ccc(C#CC#N)cc1 [Compound 11, N-(4-(Cyanoethynyl)phenyl)acetamide]
- hydrolysis (in words) ([3]; PBS (1×, pH 7.6), 1 mM, 25° C., up to 5 hours of monitoring): no hydrolysis could be detected; also recorded: No detectable conversion; also recorded: no detectable change in concentration
- hydrolysis (in words) ([3]; after a week at room temperature): no trace of hydrolyzed product could be detected
- Conversion [1, 10]: 52.3%
